Assay results published in ChEMBL document CHEMBL1268811, “A retro-inverso TAT-like peptide designed to deliver cysteamine to cells” (Bioorg Med Chem Lett, 2010).
*1 amine or outer side, *2 acyl side, *3 side chain or, on linkers, in order; H or OH if unused. Where a SMILES comes first, the peptide text is derived from it. The star is where a group is joined. 5TAMRA = CN(C)c1ccc2c(c1)Oc1cc(N(C)C)ccc1C21OC(=O)c2cc(C(=O)*)ccc21; Cysteamine = C(CS[*:2])N[*:1]

Experiment: Drug uptake in lysosomes of human HeLa cells transfected with Cerulean-Lamp-1 plasmid at 1 uM after 1 hr by fluorescence microscopy; call rule not given here
Format: ADME, cell-based, Lysosome

SMILES	Drug uptake
CN(C)c1ccc2c(c1)Oc1cc(N(C)C)ccc1C21OC(=O)c2cc(C(=O)N[C@@H](CCCNC(=N)N)C(=O)N[C@@H](CCCNC(=N)N)C(=O)N[C@@H](CCCNC(=N)N)C(=O)N[C@@H](CCC(N)=O)C(=O)N[C@@H](CCCNC(=N)N)C(=O)N[C@@H](CCCNC(=N)N)C(=O)N[C@@H](CSSCCN)C(=O)N[C@@H](CSSCCN)C(=O)N[C@@H](CCCNC(=N)N)C(=O)NCC(=O)N[C@@H](Cc3ccc(O)cc3)C(=O)O)ccc21 (5TAMRA-RRRQRRC(Cysteamine)C(Cysteamine)RGY-OH)	Active
CN(C)c1ccc2c(c1)Oc1cc(N(C)C)ccc1C21OC(=O)c2cc(C(=O)N[C@@H](CCCNC(=N)N)C(=O)N[C@@H](CCCNC(=N)N)C(=O)N[C@@H](CCCNC(=N)N)C(=O)N[C@@H](CCC(N)=O)C(=O)N[C@@H](CCCNC(=N)N)C(=O)N[C@@H](CCCNC(=N)N)C(=O)N[C@@H](CSSCCN)C(=O)N[C@@H](CS)C(=O)N[C@@H](CCCNC(=N)N)C(=O)NCC(=O)N[C@@H](Cc3ccc(O)cc3)C(=O)O)ccc21 (5TAMRA-RRRQRRC(Cysteamine)CRGY-OH)	Not Active
CN(C)c1ccc2c(c1)Oc1cc(N(C)C)ccc1C21OC(=O)c2cc(C(=O)N[C@@H](CCCNC(=N)N)C(=O)N[C@@H](CCCNC(=N)N)C(=O)N[C@@H](CCCNC(=N)N)C(=O)N[C@@H](CCC(N)=O)C(=O)N[C@@H](CCCNC(=N)N)C(=O)N[C@@H](CCCNC(=N)N)C(=O)N[C@@H](CS)C(=O)N[C@@H](CSSCCN)C(=O)N[C@@H](CCCNC(=N)N)C(=O)NCC(=O)N[C@@H](Cc3ccc(O)cc3)C(=O)O)ccc21 (5TAMRA-RRRQRRCC(Cysteamine)RGY-OH)	Not Active
CN(C)c1ccc2c(c1)Oc1cc(N(C)C)ccc1C21OC(=O)c2cc(C(=O)N[C@@H](CCCNC(=N)N)C(=O)N[C@@H](CCCNC(=N)N)C(=O)N[C@@H](CCCNC(=N)N)C(=O)N[C@@H](CCC(N)=O)C(=O)N[C@@H](CCCNC(=N)N)C(=O)N[C@@H](CCCNC(=N)N)C(=O)N[C@@H](CS)C(=O)N[C@@H](CS)C(=O)N[C@@H](CCCNC(=N)N)C(=O)NCC(=O)N[C@@H](Cc3ccc(O)cc3)C(=O)O)ccc21 (5TAMRA-RRRQRRCCRGY-OH)	Not Active
